This is an account of results in patent US20150080580A1, “THIOUREA DERIVATIVES AS a-CHYMOTRYPSIN INHIBITORS” (priority 2013, published 2015).

In series [1] the target is T1, α-Chymotrypsin (Bos taurus, UniProt P00766).
T1 construct: purchased Sigma-Aldrich (USA) C4129; host or cells: bovine pancreas
The series is described as follows: α-Chymotrypsin inhibition assay (SPpNA substrate, absorbance at 410 nm). To be noted: α-chymotrypsin, substrate SPpNA 0.4 mM, pH 7.6, 30° C., n = 3. The series is classed as biochemical, bovine. How it is done:
(§1) α-Chymotrypsin (bovine pancreas, C4129) and N-succinyl-L-phenylalanine-p-nitroaniline (S2628) were purchased from Sigma-Aldrich (USA). Chymostatin (152845) from MP Biomedicals, LLC, USA, Tris(hydroxymethyl)aminomethane from Scharlau Chemie Barcelona, Spain and all other reagents were obtained from E. Merck and were of analytical grade. All other solvents and reagents were of analytical grade and used directly without purification.
This was performed in 50 mM Tris-HCl buffer pH 7.6 with 10 mM CaCl2. α-Chymotrypsin (12 units/mL prepared in 50 mM Tris-HCl buffer) with the different concentration of test compounds prepared in DMSO. It was then incubated at 30° C. for 25 min. The reaction was started by the addition of the substrate, N-succinyl-L-phenylalanine-p-nitroanilide (final concentration of 0.4 mM, prepared in the buffer as mentioned above). The change in absorbance due to released p-nitroaniline was continuously monitored at 410 nm (Choudhary et al., 2011). All the experiments were in a final volume of 200 μL in triplicate, and data was taken using a micro-plate reader (SpectraMax M2, Molecular Devices, Calif., USA).
The results were processed by using SoftMax Pro 4.8 then analyzed by MS Excel software. The % of inhibition based upon initial velocity and calculated as: […]
IC50 (Inhibition of enzymatic hydrolysis of the substrate SPpNA by 50%) value was calculated using EZ-Fit software (Perellela Scientific, Inc., Amherst, Mars, USA).

Another series relates to 3T3 cell line. The series is described as follows: Cell proliferation inhibition (cytotoxicity) MTT assay for 3T3 cell line. Format: cell-based, Mouse. How it is done:
(§2) It was evaluated by using the MTT (3-[4,5-dimethylthiazole-2-yl]-2,5-diphenyl-tetrazolium bromide) assay (Mosmann, 1983). The 3T3 cell-lines (Mouse Fibroblasts) were cultured in Dulbecco's Modified Eagle's Medium, which was later supplemented with 5% of bovine serum, 100 IU/mL of penicillin, and 100 μg/mL of streptomycin, in 5% CO2 incubator at 37° C. Exponentially growing cell, 1×10^4 cells/well incorporated into each well of 96-well plates. Then, fresh the medium containing different concentrations of compounds were loaded in each well after 24 hours. Again, after 72 hrs, fresh the medium containing 0.5 mg/mL MTT were loaded in each well, and incubated further for 4 hrs. Subsequently, the media containing MTT was replaced by 100 μL of DMSO for 15 min, and then the absorbance was taken at 570 nm.
On the technique in general: Tetrazolium assays rely on reduction of a dye to a coloured formazan, in cell work by metabolically active cells.

Assay in series [2]: as above
To be noted: 3T3 mouse fibroblast cells; 3T3 mouse fibroblasts, MTT, 72 hrs, n = 3; read-out: 3T3 cell-line GI50 ± SEM. The series is classed as cell-based, Mouse. How it is done:
as §2

Series [3] deals with T1, α-Chymotrypsin. The series is described as follows: α-Chymotrypsin inhibition kinetic study (Lineweaver-Burk, Dixon, Hanes-Woolf plots). Particulars: for Type of inhibition: from Lineweaver-Burk, Dixon and Hanes-Woolf plots; for Ki: substrate SPpNA 0.4-3.2 mM, n = 3, read-out: Ki ± SEM. The series is classed as biochemical, bovine.
From the text: as §1
The change in concentration of the substrate/product (rate of reaction) was measured as optical density per minute (OD/min). This OD/min was obtained by incorporating different concentrations of compounds over substrate (SPpNA) concentrations between 0.4 mM and 3.2 mM in micro-plate reader. Reciprocal of OD/min against the reciprocal of the substrate concentration, defined as Lineweaver-Burk plot (and its secondary plot; slope vs compound concentration); the Dixon plot (and its secondary plot; slope vs reciprocal of compound concentration) and then Hanes-Woolf plot were plotted (Lineweaver et al., 1934; Dixon, 1953; Segel, 1993) Graphs were plotted using GraFit 4 (Erithacus Software Limited, Surrey, UK) and GraphPad Prism 5 (GraphPad Software, California, USA). The types of inhibition were determined by the graphical views of Dixon plots, Lineweaver-Burk plots and their secondary plots as well as Hanes-Woolf plot. The Ki values, obtained directly from the software, also were cross-checked and tallied in these graphs. Final concentration of DMSO was maintained 5.5%.

Broadly, the IC50 is the midpoint of a concentration-inhibition curve. Read a low IC50 as greater potency in that assay. In general, GI50 refers to the concentration that inhibits growth by half. A word on the Ki: it is the dissociation constant of the complex between target and ligand, obtained from inhibition or displacement. At α-Chymotrypsin [1], `COc1ccccc1NC(=S)Nc1cccc(Cl)c1` [Compound 5, 1-(3-Chlorophenyl)-3-(2-methoxyphenyl) thiourea] yielded an IC50 of 26.3 ± 4.9 µM. Moreover, in the series on 3T3 cell line, the “growth inhibition for 3T3 cell lines (in words)” value (from here on “growth inhibition”) is given as “showed growth inhibition”. Besides, the GI50 at 72 h in series [2] worked out at 10.7 ± 1.2 µM. Also, at α-Chymotrypsin [3], the Type of inhibition entry was “Non- Competitive” and the Ki stood at 25.3 ± 4.6 µM.

`Cc1ccc(Cl)cc1NC(=S)Nc1cccc(Cl)c1` [Compound 7, 1-(5-Chloro-2-methylphenyl)-3-(3-chlorophenyl) thiourea] yielded an IC50 on α-Chymotrypsin [1] of 40.4 ± 1.2 µM. Further, the “growth inhibition” value in the series with 3T3 cell line is reported as “showed growth inhibition”. In addition, the GI50 at 72 h in series [2] is 24.6 ± 0.2 µM. Further, at α-Chymotrypsin [3], the Type of inhibition result is reported as “Competitive” and the Ki worked out at 25.8 ± 0.9 µM.

For `S=C(Nc1cccc(Cl)c1)Nc1ccc(Cl)cc1Cl` [Compound 8, 1-(3-Chlorophenyl)-3-(2,4-dichlorophenyl) thiourea], inhibition at α-Chymotrypsin [1] was half-maximal at 42.4 ± 0.3 µM (IC50). In addition, in the series with 3T3 cell line, the “growth inhibition” value is listed as “showed growth inhibition”. In addition, in series [2], the GI50 at 72 h stood at 21.4 ± 0.1 µM. At α-Chymotrypsin [3], the Type of inhibition result is “Mixed” and the Ki is 31.8 ± 3.4 µM.

As to `Cc1ccc(NC(=S)Nc2cccc(Cl)c2)cc1` [Compound 9, 1-(3-Chlorophenyl)-3-p-tolylthiourea], on α-Chymotrypsin [1], it took 46.2 ± 0.5 µM to reach half-maximal inhibition (IC50). Besides, the “growth inhibition” value in the series on 3T3 cell line is listed as “showed growth inhibition”. Also, the concentration for 50% growth inhibition (GI50) at 72 h in series [2] amounted to 2.3 ± 0.4 µM. At α-Chymotrypsin [3], the Type of inhibition entry was “Non- Competitive” and the Ki was 39.6 ± 1 µM.

Compound `Fc1ccc(NC(=S)Nc2ccccc2)c(F)c1` [Compound 22, 1-(2,4-Difluorophenyl)-3-phenylthiourea] returned an IC50 at α-Chymotrypsin [1] of 193 ± 1 µM. Also, the GI50 at 72 h in series [2] was greater than 30 µM. At α-Chymotrypsin [3], the Type of inhibition entry is given as “Competitive” and the Ki turned out to be 142 ± 5 µM.
